Measured values: patent publication US11524012B1, “Quinolone analogs and their salts, compositions, and method for their use” (Senhwa Biosciences, Inc., priority 2018, dated 2022)

Experiment: Population PK model in mice (NONMEM)
Assay type: in vivo, ICR and athymic nude (nu/nu) mice
Description: The current population analysis utilized non-linear mixed effects modeling to quantify the PK and pharmacodynamics (PD) of Compound I. This approach involved estimation of fixed-effect (mean) parameters, together with inter-individual and residual variability for each of the models developed. Where relevant, covariate effects were incorporated to potentially explain the random sources of variability. An additional benefit of this modeling approach is the ability to appropriately handle sparse or unbalanced data, particularly where practical considerations prohibit intensive sampling. Finally, non-linear mixed effects modeling allows for the stochastic simulation of PK-PD to assist with dose recommendation in target populations of interest.
A total of four non-clinical studies were used to characterize PK of Compound I in mice. The dosing regimens included both intravenous (IV) and oral (PO) routes of administration at various dosing schedules. Animal strains evaluated included wild-type ICR and athymic nude (nu/nu) mice (Table 28).
Several PO absorption and disposition models were investigated to describe the PK of Compound I following IV or PO dosing to mice. In addition, the model included a pathway for enterohepatic recirculation, based on the known pharmacology of Compound I.
Total bodyweight was incorporated a priori into the structural base model to allow for parameter comparison between mice and humans. For this, the disposition parameters were allometrically scaled using Equation 1 below: […]
The input after PO dosing was described by first-order absorption. Drug disposition was characterized by a 3 compartment model, with an additional pathway describing known enterohepatic recirculation.
where compartments 1 to 5 represent the PO dosing, central (plasma), 1st peripheral, 2nd peripheral, and gall bladder, respectively. The FLAG component in Equations 2 and 6 is a reserved variable in the modeling software used that allows for estimation of the start and end times of enterohepatic recycling. All parameters are defined in Table 31.
The kinetics of Compound I concentration and xenograft volume was analyzed using non-linear mixed effects modeling (NONMEM® version 7.3; ICON Development Solutions, Maryland, USA). For PK model development, Compound I total drug concentrations were logarithmically transformed to efficiently accommodate the large range of magnitude in observed data. In contrast, xenograft volumes were modeled in the untransformed scale. All population analyses were performed using first-order conditional estimation with interaction, with the ADVAN13 subroutine (TOL=9) to solve the differential equations. For mouse PK model, the reserved FLAG term was used to define the start and end times of enterohepatic recycling using MTIME.
A total of 43 ICR wild-type and nu/nu mice were used to characterize the plasma PK of Compound I following IV and PO bolus administration. The absorption of Compound I after PO dosing was adequately described by a first-order input model. […] The disposition of Compound I was characterized by a 3-compartment model, with an additional enterohepatic recirculation pathway to accommodate its known pharmacology (FIG. 20).
Inclusion of a pathway to describe known enterohepatic circulation was particularly challenging due to the small number of mice available for population PK analysis. A further limitation was the lack of an apparent ‘double-peak’ in the concentration-time profiles for all mice. Consequently, to support the estimation of this pathway, it was assumed that: • Recirculation begins immediately after dosing with all of the Compound I clearance diverted to the gall bladder for the estimated duration of enterohepatic recycling; • The kinetics of transfer for gall bladder to gut is rapid.

[1] = mice, allometrically scaled to 70 kg, population mean Estimate (% RSE)
[2] = mice, population mean Estimate (% RSE)
[3] = nu/nu relative to ICR mice, population mean Estimate (% RSE)

Compound: Cc1cnc(CNC(=O)c2c(=O)c3ccc(N4CCCN(C)CC4)nc3n3c2sc2ccccc23)cn1 [Compound I, 2-(4-Methyl-[1,4]diazepan-1-yl)-5-oxo-5H-7-thia-1,11b-diaza-benzo[c]fluorene-6-carboxylic acid (5-methyl-pyrazin-2-ylmethyl)-amide]
- bioavailability (ICR and athymic nude (nu/nu), mouse, plasma, po, population estimate, read-out: Absolute bioavailability via the PO route): 24.8%
- central volume, nu/nu relative to the ICR wild-type strain (covariate analysis): ~5 fold
- clearance, nu/nu relative to the ICR wild-type strain (covariate analysis): approximately 4 fold
- CL, Clearance from the central compartment [1]: 0.330 (13.3) L/h/70 kg
- CLD1, 1st peripheral distribution clearance [1]: 0.145 (29.9) L/h/70 kg
- CLD2, 2nd peripheral distribution clearance [1]: 0.194 (33.7) L/h/70 kg
- VP1, 1st peripheral distribution volume [1]: 7.51 (22.7) L/70 kg
- VP2, 2nd peripheral distribution volume [1]: 149 (21.0) L/70 kg
- Vc, Central compartment distribution volume [1]: 26.2 (15.1) L/70 kg
- Vc, Central compartment distribution volume, % BSV (mice, between-subject variability Estimate (% RSE)): 44.5 (22.8) %
- Foral, Absolute bioavailability after PO dosing [2]: 0.248 (9.7)
- HRCTime, Enterohepatic recirculation time [2]: 3.66 (10.7) h
- ka, First-order rate constant for PO absorption [2]: 1.29 (11.5) 1/h
- FCL_NU, Fold change in clearance (nu/nu mice) [3]: 3.99 (14.8)
- FVC_NU, Fold change in central volume (nu/nu mice) [3]: 4.78 (8.8)
- clearance (estimated mean) (population estimate, allometrically scaled): 0.330 L/h/70 kg
